Assay results from PubChem BioAssay (NCI).
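How tested: cells in 96-well plates exposed to compound for 48 hours at five concentrations. The concentration for 50% growth inhibition is given as GI50. At the TGI there is no net growth.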

What was measured:
Assay in all cases: NCI-60 cell line screen, 48 h; in the data active = GI50 below about 0.43 µM; inactive = the rest
RXF 393 renal = tested on: RXF 393 renal
786-0 renal = tested on: 786-0 renal
A498 renal = tested on: A498 renal
A549 NSCLC = tested on: A549 NSCLC
ACHN renal = tested on: ACHN renal
BT-549 breast = tested on: BT-549 breast
CAKI-1 renal = tested on: CAKI-1 renal
COLO 205 colon = tested on: COLO 205 colon
DU-145 prostate = tested on: DU-145 prostate
EKVX NSCLC = tested on: EKVX NSCLC
HCT-116 colon = tested on: HCT-116 colon
HCT-15 colon = tested on: HCT-15 colon
HL-60(TB) leukemia = tested on: HL-60(TB) leukemia
HOP-62 NSCLC = tested on: HOP-62 NSCLC
HOP-92 NSCLC = tested on: HOP-92 NSCLC
HS 578T breast = tested on: HS 578T breast
HT29 colon = tested on: HT29 colon
IGROV1 ovarian = tested on: IGROV1 ovarian
K-562 leukemia = tested on: K-562 leukemia
KM12 colon = tested on: KM12 colon
LOX IMVI melanoma = tested on: LOX IMVI melanoma
M14 melanoma = tested on: M14 melanoma
MCF7 breast = tested on: MCF7 breast
MDA-MB-231 breast = tested on: MDA-MB-231 breast
MDA-MB-435 = tested on: MDA-MB-435
MOLT-4 leukemia = tested on: MOLT-4 leukemia
NCI-H226 lung = tested on: NCI-H226 lung
NCI-H23 lung = tested on: NCI-H23 lung
NCI-H460 lung = tested on: NCI-H460 lung
NCI-H522 lung = tested on: NCI-H522 lung
NCI/ADR-RES ovarian = tested on: NCI/ADR-RES ovarian
OVCAR-3 ovarian = tested on: OVCAR-3 ovarian
OVCAR-4 ovarian = tested on: OVCAR-4 ovarian
OVCAR-5 ovarian = tested on: OVCAR-5 ovarian
OVCAR-8 ovarian = tested on: OVCAR-8 ovarian
PC-3 prostate = tested on: PC-3 prostate
RPMI-8226 leukemia = tested on: RPMI-8226 leukemia
SF-268 CNS = tested on: SF-268 CNS
SF-295 CNS = tested on: SF-295 CNS
SF-539 CNS = tested on: SF-539 CNS
SK-MEL-2 melanoma = tested on: SK-MEL-2 melanoma
SK-MEL-28 melanoma = tested on: SK-MEL-28 melanoma
SK-MEL-5 melanoma = tested on: SK-MEL-5 melanoma
SK-OV-3 ovarian = tested on: SK-OV-3 ovarian
SN12C renal = tested on: SN12C renal
SNB-19 CNS = tested on: SNB-19 CNS
SNB-75 CNS = tested on: SNB-75 CNS
SR leukemia = tested on: SR leukemia
SW-620 colon = tested on: SW-620 colon
U251 CNS = tested on: U251 CNS
UACC-257 melanoma = tested on: UACC-257 melanoma
UACC-62 melanoma = tested on: UACC-62 melanoma
UO-31 renal = tested on: UO-31 renal
TK-10 renal = tested on: TK-10 renal

O=C(O)C1CC[N-]CC1.O=C(O)C1CC[N-]CC1.[Cl][Pt+2]([Cl])([Cl])[Cl]
inactive: GI50 (RXF 393 renal) 34.2 µM

COc1ncnc(NS(=O)(=O)c2ccc(N=C3C(=O)N(CN4CCN(c5c(F)cc6c(=O)c(C(=O)O)cn(C7CC7)c6c5OC)CC4C)c4ccc(Cl)cc43)cc2)c1OC (stereo not drawn)
> 50 µM: TGI (786-0 renal) | TGI (A498 renal) | TGI (A549 NSCLC) | TGI (BT-549 breast) | TGI (COLO 205 colon) | TGI (DU-145 prostate) | TGI (EKVX NSCLC) | TGI (HCT-116 colon) | TGI (HL-60(TB) leukemia) | TGI (HOP-62 NSCLC) | TGI (HOP-92 NSCLC) | TGI (HS 578T breast) | TGI (HT29 colon) | TGI (IGROV1 ovarian) | TGI (K-562 leukemia) | TGI (KM12 colon) | TGI (M14 melanoma) | TGI (MCF7 breast) | TGI (MDA-MB-231 breast) | TGI (MOLT-4 leukemia) | TGI (NCI-H226 lung) | TGI (NCI-H460 lung) | TGI (NCI-H522 lung) | TGI (OVCAR-3 ovarian) | TGI (OVCAR-4 ovarian) | TGI (OVCAR-5 ovarian) | TGI (OVCAR-8 ovarian) | TGI (PC-3 prostate) | TGI (SF-268 CNS) | TGI (SF-295 CNS) | TGI (SF-539 CNS) | TGI (SK-MEL-2 melanoma) | TGI (SK-MEL-28 melanoma) | TGI (SK-OV-3 ovarian) | TGI (SN12C renal) | TGI (SNB-19 CNS) | TGI (SNB-75 CNS) | TGI (SR leukemia) | TGI (SW-620 colon) | TGI (UACC-62 melanoma) | TGI (UO-31 renal)
14.7 µM: TGI (UACC-257 melanoma)
42.1 µM: TGI (NCI/ADR-RES ovarian)
16.5 µM: TGI (SK-MEL-5 melanoma)
47.3 µM: TGI (NCI-H23 lung)
15.6 µM: TGI (LOX IMVI melanoma)
23 µM: TGI (HCT-15 colon)
19 µM: TGI (MDA-MB-435)
20.6 µM: TGI (ACHN renal)
39.6 µM: TGI (RXF 393 renal)
26.1 µM: TGI (CAKI-1 renal)
28.1 µM: TGI (RPMI-8226 leukemia)
45.2 µM: TGI (U251 CNS)
inactive: GI50 (786-0 renal) 21.4 µM | GI50 (A498 renal) 40.8 µM | GI50 (A549 NSCLC) 21.2 µM | GI50 (ACHN renal) 7.17 µM | GI50 (BT-549 breast) 20.6 µM | GI50 (CAKI-1 renal) 6.44 µM | GI50 (COLO 205 colon) 19.6 µM | GI50 (DU-145 prostate) 21 µM | GI50 (EKVX NSCLC) 27.7 µM | GI50 (HCT-116 colon) 11.5 µM | GI50 (HCT-15 colon) 7.48 µM | GI50 (HL-60(TB) leukemia) 14 µM | GI50 (HOP-62 NSCLC) 23.4 µM | GI50 (HOP-92 NSCLC) 10.6 µM | GI50 (HS 578T breast) 23.1 µM | GI50 (HT29 colon) 18.4 µM | GI50 (IGROV1 ovarian) 20 µM | GI50 (K-562 leukemia) 20.5 µM | GI50 (KM12 colon) 13 µM | GI50 (LOX IMVI melanoma) 6.89 µM | GI50 (M14 melanoma) 21.1 µM | GI50 (MCF7 breast) 12 µM | GI50 (MDA-MB-231 breast) 6.3 µM | GI50 (MDA-MB-435) 9.34 µM | GI50 (MOLT-4 leukemia) > 50 µM | GI50 (NCI-H226 lung) 27.1 µM | GI50 (NCI-H23 lung) 13.5 µM | GI50 (NCI-H460 lung) 11 µM | GI50 (NCI-H522 lung) > 50 µM | GI50 (NCI/ADR-RES ovarian) 8.76 µM | GI50 (OVCAR-3 ovarian) 13.1 µM | GI50 (OVCAR-4 ovarian) 37.7 µM | GI50 (OVCAR-5 ovarian) 19.2 µM | GI50 (OVCAR-8 ovarian) 14 µM | GI50 (PC-3 prostate) 9.39 µM | GI50 (RPMI-8226 leukemia) 8.33 µM | GI50 (RXF 393 renal) 10.8 µM | GI50 (SF-268 CNS) 10.7 µM | GI50 (SF-295 CNS) 10.7 µM | GI50 (SF-539 CNS) 16.8 µM | GI50 (SK-MEL-2 melanoma) 35.2 µM | GI50 (SK-MEL-28 melanoma) 26.1 µM | GI50 (SK-MEL-5 melanoma) 8.63 µM | GI50 (SK-OV-3 ovarian) 37.7 µM | GI50 (SN12C renal) 16.9 µM | GI50 (SNB-19 CNS) > 50 µM | GI50 (SNB-75 CNS) > 50 µM | GI50 (SR leukemia) 5.3 µM | GI50 (SW-620 colon) 10.7 µM | GI50 (U251 CNS) 9.61 µM | GI50 (UACC-257 melanoma) 6.32 µM | GI50 (UACC-62 melanoma) 16.1 µM | GI50 (UO-31 renal) 32.7 µM

OC(c1cc(-c2ccc(C(F)(F)F)cc2)nc(-c2ccc(C(F)(F)F)cc2)c1)C1CCCCN1 (stereo not drawn)
3.3 µM: TGI (UO-31 renal)
3.28 µM: TGI (A549 NSCLC) | TGI (TK-10 renal)
2.1 µM: TGI (COLO 205 colon)
3.32 µM: TGI (U251 CNS)
3.09 µM: TGI (HT29 colon)
3.33 µM: TGI (SF-295 CNS)
3.06 µM: TGI (OVCAR-5 ovarian)
inactive: GI50 (A498 renal) 1.56 µM | GI50 (A549 NSCLC) 1.72 µM | GI50 (CAKI-1 renal) 1.89 µM | GI50 (COLO 205 colon) 0.893 µM | GI50 (DU-145 prostate) 1.78 µM | GI50 (HCT-116 colon) 1.66 µM | GI50 (HL-60(TB) leukemia) 2.05 µM | GI50 (HS 578T breast) 1.47 µM | GI50 (HT29 colon) 1.62 µM | GI50 (IGROV1 ovarian) 1.83 µM | GI50 (NCI-H460 lung) 1.62 µM | GI50 (OVCAR-3 ovarian) 1.78 µM | GI50 (OVCAR-5 ovarian) 1.58 µM | GI50 (OVCAR-8 ovarian) 1.47 µM | GI50 (SF-295 CNS) 1.75 µM | GI50 (TK-10 renal) 1.82 µM | GI50 (U251 CNS) 1.71 µM | GI50 (UO-31 renal) 1.56 µM
2.96 µM: TGI (A498 renal)
3.79 µM: TGI (CAKI-1 renal)
3.2 µM: TGI (HS 578T breast)
3.16 µM: TGI (DU-145 prostate)
3.1 µM: TGI (OVCAR-8 ovarian)
3.25 µM: TGI (OVCAR-3 ovarian)
3.18 µM: TGI (HCT-116 colon)
3.67 µM: TGI (IGROV1 ovarian)
3.08 µM: TGI (NCI-H460 lung)
3.88 µM: TGI (HL-60(TB) leukemia)
